Data set [1] in a line: overt toxic effects at multiples of the minimum active dose. The settings on record: dosed at 20 times its minimum effective dose. Format: in vivo.
The test system of the next data set is luliberin. Particulars: literature: Coy et al., Molecular and Cellular Endocrinology, 1976, 5, 201-208; cited from earlier work.

We go through two molecules from patent US4124703A, “Luliberin analogs” (Imperial Chemical Industries Limited, priority 1976, dated 1978).

Non-standard residues stand in square brackets, D forms with d. Residues, ends and D or L forms follow the SMILES beside them. pGlu = O=C1CC[C@@H](C(=O)O)N1; azaGly = NNC(=O)O

For `CC(C)C[C@H](NC(=O)[C@@H](Cc1ccccc1)NC(=O)[C@H](Cc1ccc(O)cc1)NC(=O)[C@H](CO)NC(=O)[C@H](Cc1c[nH]c2ccccc12)NC(=O)[C@@H](Cc1ccccc1)NC(=O)[C@@H]1CCC(=O)N1)C(=O)N[C@@H](CCCNC(=N)N)C(=O)N1CCC[C@H]1C(=O)NNC(N)=O` [Example 1, L-pyroglutamyl-D-phenylalanyl-L-tryptophyl-L-seryl-L-tyrosyl-D-phenylalanyl-L-leucyl-L-arginyl-L-prolylazaglycine amide] ([pGlu][dF]WSY[dF]LRP[azaGly]-NH2), the overt toxic effects entry in data set [1] was “no overt toxic effects”.

In the case of [D-Phe^2, D-Phe^6 ] luliberin, the luliberin antagonist properties result in the data set on luliberin was “has luliberin antagonist properties”.
